# Laboratory results published in patent US10500226B2, “Alginate compositions and uses thereof” (Hadasit Medical Research Services and Development Ltd., priority 2012, dated 2019).
# System: serum ALT (alanine aminotransferase)
# Test: Concanavalin A mouse model: serum ALT
# Assay type: in vivo, C57BL/6 (B6) mice
# Excerpt: Injection of the T-cell mitogenic plant lectin concanavalin A (Con A) to non-sensitized mice results in hepatic apoptosis that precedes necrosis. The concanvalin A (Con A) model is a widely utilized mouse model, which mimics many aspects of human autoimmune hepatitis. It induces a massive liver necrosis in mice, simultaneously with lymphocyte infiltration into the liver, high levels of apoptotic hepatocytes and elevated serum alanine aminotransferase (ALT) and aspartate aminotransferase (AST). The liver injury is mediated by natural killer T (NKT) cells. Several apoptosis-related effector molecules, IFN-γ and TNF-α take part in the NKT cell-mediated liver injury. The immune-mediated liver injury which develops in the Con A model is very rapid, taking less than 48 hours. The peak for liver enzymes and pro-inflammtory cytokines is after less than 15 hours, making the model particularly useful for screening anti-inflammatory agents.
# Tested solutions were administered intraperitoneally by injection of a volume of 200 μl per mouse or by administration per os of 250 μl per mouse, 1 hour before concanavalin A (Con A) administration. Saline (0.15 M NaCl) served as a negative control test solution.
# Con A was dissolved at a concentration of 16 mg/kg in 200 μl of 50 mM Tris (pH 7), with 150 mM NaCl, and 4 mM CaCl2, and injected (at a dose of 0.4 mg/mouse) intravenously into the tail vein of mice. Sera from individual mice were obtained 6, 24 and 48 hours (14 hours in some experiments) after Con A injection. All mice were sacrificed after 48 hours (14 hours in some experiments).
# Serum albumin levels after 48 hours were measured by an automatic analyzer.
# The solutions were administered intraperitoneally to adult male C57BL mice at a dose of 200 μl per mouse. One hour later, the mice were challenged with an intravenous injection of concanavalin A (Con A), as described hereinabove. […] Each treatment group contained 4-5 mice. Serum levels of ALT, albumin, and the pro-inflammatory cytokines IL-6 and interferon-γ (IFNγ) were determined as described hereinabove.
structure (smiles),measurement,setting,value
C[C@@H]1C[C@H]2[C@@H]3CCC4=CC(=O)C=C[C@]4(C)[C@@]3(F)[C@@H](O)C[C@]2(C)[C@@]1(O)C(=O)CO [Dexamethasone],serum ALT levels,"2% solutions i.p., 14 hours after Con A administration",203±14 units/liter
same,Serum levels of ALT,"Table 3, 200 μl i.p. 1 hour before Con A (dexamethasone per os), 6 hours after Con A",146 ± 50 units/liter
same,Serum levels of ALT,"Table 3, 200 μl i.p. 1 hour before Con A (dexamethasone per os), 24 hours after Con A",162 ± 50 units/liter
same,Serum levels of ALT,"Table 3, 200 μl i.p. 1 hour before Con A (dexamethasone per os), 48 hours after Con A",69 ± 19 units/liter
same,Serum levels of ALT,"Table 4 (hyaluronan comparison), i.p. before Con A, 6 hours after Con A",83 ± 21 units/liter
same,Serum levels of ALT,"Table 4 (hyaluronan comparison), i.p. before Con A, 24 hours after Con A",68 ± 4 units/liter
same,Serum levels of ALT,"Table 4 (hyaluronan comparison), i.p. before Con A, 48 hours after Con A",76 ± 23 units/liter
same,Serum levels of ALT,"Table 5 (biotinylated alginate, 2%), before Con A, 6 hours after Con A",74 ± 5 units/liter
same,Serum levels of ALT,"Table 5 (biotinylated alginate, 2%), before Con A, 24 hours after Con A",62 ± 14 units/liter
same,Serum levels of ALT,"Table 5 (biotinylated alginate, 2%), before Con A, 48 hours after Con A",65 ± 16 units/liter
same,Serum levels of ALT,"Table 6 (γ-irradiated alginate comparison), 6 hours after Con A",28 ± 10 units/liter
same,Serum levels of ALT,"Table 6 (γ-irradiated alginate comparison), 24 hours after Con A",126 ± 37 units/liter
same,Serum levels of ALT,"Table 6 (γ-irradiated alginate comparison), 48 hours after Con A",68 ± 7 units/liter
same,Serum levels of ALT,"Table 7, per os 250 μl 1 hour before Con A, 6 hours after Con A",46 ± 6 units/liter
same,Serum levels of ALT,"Table 7, per os 250 μl 1 hour before Con A, 24 hours after Con A",65 ± 10 units/liter
same,Serum levels of ALT,"Table 7, per os 250 μl 1 hour before Con A, 48 hours after Con A",139 ± 26 units/liter
same,Serum levels of ALT,"Table 8, per os, repeat with other alginates, 6 hours after Con A",33 ± 12 units/liter
same,Serum levels of ALT,"Table 8, per os, repeat with other alginates, 24 hours after Con A",37 ± 10 units/liter
same,Serum levels of ALT,"Table 8, per os, repeat with other alginates, 48 hours after Con A",31 ± 5 units/liter
